Source: paper PMC12139422, “Structural basis for phosphatidylcholine synthesis by bacterial phospholipid N-methyltransferases” (The Journal of Biological Chemistry, 2025)

Assays:
[1] = target: T1, AtPmtAΔN25 (Agrobacterium fabrum, UniProt A9CKE9); test: X-ray crystal structure ([…] Å) and 1H-15N HSQC NMR titration; assay type: binding; conditions: cocrystallised at 10:1 ligand-to-protein, pH 8.0, 20 °C; NMR titration 0-10 equivalents, pH 7.0, 10 °C; SAM site (Gly-rich loop)
T1 construct: gene Atu0300; lacks residues 1-25 (N-terminal amphipathic helix); N-terminal His6-tag cut with HRV 3C protease; expressed in E. coli C43(DE3); full length 197 residues; four molecules in the asymmetric unit
T1 sequence (A9CKE9 26-197): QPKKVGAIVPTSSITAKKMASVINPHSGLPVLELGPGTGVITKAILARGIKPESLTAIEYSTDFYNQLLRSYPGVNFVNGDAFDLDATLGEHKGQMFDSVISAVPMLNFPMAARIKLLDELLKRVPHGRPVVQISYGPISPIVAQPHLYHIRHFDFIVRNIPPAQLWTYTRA

[2] = target: T1, AtPmtAΔN25; test: X-ray crystal structure ([…] Å); assay type: binding; conditions: cocrystallised with SAM at 10:1 ligand-to-protein, pH 8.0, 20 °C; density assigned to MTA as SAM cleavage product; SAM site

SMILES	X-ray crystal structure (1.95 Å) and 1H-15N HSQC NMR titration [1]	X-ray crystal structure (2.04 Å) [2]
Nc1ncnc2c1ncn2[C@@H]1O[C@H](CSCC[C@H](N)C(=O)O)[C@@H](O)[C@H]1O [SAH]	All four AtPmtAΔN25 molecules in the asymmetric unit contained SAH molecules with clear electron densities	–
CSC[C@H]1O[C@@H](n2cnc3c(N)ncnc32)[C@H](O)[C@@H]1O [5′-methylthioadenosine]	–	Therefore, we assigned the electron density to MTA
